The values below are quoted from earlier work in US20240360103A1, “COMPLEMENT INHIBITION” (Apellis Pharmaceuticals, Inc., priority 2021, published 2024).

This data set concerns complement activation. Particulars: relative to compstatin amidated at the C-terminus; published data; cited from earlier work.

With “Ac-ICV(2-Igl)QDWGAHRCT-CONH2 [Ac-V42Igl/H9A]”, the Activity over compstatin was 39xmore.
For the substance “Ac-ICVWQDWGAHRCdT-COOH [Ac-V4W/H9A/T13dT-OH]”, the Activity over compstatin was 55xmore.
As to “Ac-ICVWQDWGAHRCT-CONH2 (Ac-ICVWQDWGAHRCT-NH2; cysteine pairing not given here) [Ac-V4W/H9A, "compstatin analogs useful in the present disclosure"]”, the Activity over compstatin is 45xmore.
Consider “Ac-ICVDhtQDWGAHRCT-COOH [Ac-V4Dht/H9A-OH]”, for which the Activity over compstatin is given as 5xmore.
With “H-GICV(6fW)QD(6fW)GAHRCTN-COOH [+G/V4(6fW)/W7(6fW)H9A + N-OH]”, the Activity over compstatin is listed as 126xmore.
